# Entries after “also recorded” stand apart in the source; their conditions may differ.
# Experiments:
# microglia = test: β-amyloid (Aβ42) brain infusion assay, microglia response in vivo; parameters: species or system mouse; conditions: intracerebroventricular infusion before Aβ42 infusion
# Source text: FIGS. 9A-9B. FIG. 9A. Aβ brain infusion assay system. Using osmotic pump implanted to mice, an experimental system using intracerebroventricular injection was established to validate the morphological and molecular changes of microglia in response to Aβ42 in vivo. FIG. 9B. Activated microglia in the vicinity of amyloid plaques. Pyk2 inhibitor was infused into Iba1-EGFP transgenic mouse brain for 3 days and then Hylite-555 labelled-AP42 was infused into the brain using osmotic pump for the next 3 days. A 20 μm scale bar is in the bottom-left corner.
# To test the morphological and molecular changes of microglia in response to Aβ42 in vivo a β-amyloid brain infusion assay was performed. An in vivo experimental system for […] was established with brain infusion pump inserted to left cerebral ventricle and treated Pyk2 inhibitor for 24 hours before Aβ42 infusion (FIG. 9A).
# Lamp1 = test: Immunoblot of Lamp1 (lysosomal activity) in MG6 cells; assay type: cell-based, mouse; conditions: 1000 nM, under β-amyloid stimulation
# Method: FIGS. 6A and 6B. Responses of lysosomal function in microglia to β-amyloid stimulation. FIG. 6A: Immunoblots of MG6 cells after treatment with Pyk2 inhibitor and β-amyloid oligomers. Cells were pretreated with 100 ng/mL CSF-1 and 1000 nM Pyk2 inhibitor (PF431396) for 24 hours as indicated, then cell lysates were harvested after treatment with 500 ng/mL β-amyloid for 24 hours (lanes 4-6). MG6 cell lysates were subjected to immunoblotting of phosphorylated Pyk2 (p-Pyk2), Lamp1, Erk, and phosphorylated Erk (p-Erk). Tubulin was used as a loading control. FIG. 6B: Quantification of immunoblotting depicted in FIG. 6A. Ratios of p-Pyk2/Pyk2, Lamp1/Tubulin, and p-Erk/Erk were calculated for MG6 cells pretreated with CSF-1 and a Pyk2 inhibitor, as indicated.
# To assess lysosomal activity, Pyk2 inhibitor treated MG6 cells were also exposed to a disease-relevant substrate, β-amyloid protein, which is associated with progressive loss of neuronal function during Alzheimer's disease. After 24 hours of treatment with β-amyloid, control and Pyk2 inhibitor treated MG6 cells were collected, lysed, and immunoblotted in order to determine the relative protein levels of Pyk2, phosphorylated Pyk2, Lamp1, Erk, phosphorylated Erk, and tubulin (FIGS. 6A and 6B). […] However, in the presence of β-amyloid protein, an increase in Lamp1 was observed following treatment with Pyk2 inhibitor.
# MG6 cells [1] = test: Proliferation of FACS-sorted mono-/multinuclear MG6 cells; assay type: cell-based, mouse; conditions: 1000 nM, 24 h pretreatment
# Method: FIGS. 7A-7D. Pyk2 inhibition promotes the phagocytotic activity and inflammatory responses in microglia. FIG. 7A: Quantification of the effect of Pyk2 inhibitor treatment on proliferation of mononucleated and multinucleated MG6 cells. MG6 cells were pretreated with 1000 nM Pyk2 inhibitor for 24 hours and mono-/multi-nuclear cells were isolated and collected by fluorescent activated cell sorting. […] There is no difference in proliferation of mononuclear cells after Pyk2 inhibitor treatment compared to untreated control cells. FIG. 7B: Fluorescent imaging depicting the effect of Pyk2 inhibitor on phagocytosis of mononucleated and multinucleated MG6 cells. […] FIG. 7C: Quantification of phagocytosis of mononucleated and multinucleated MG6 cells over time. […] Fluorescence intensity was measured by fluorescence microplate reader at excitation/emission wavelengths of 560/580 nm. […] FIG. 7D: Quantification of the effect of Pyk2 inhibitor treatment on cytokine/chemokine levels of mononucleated and multinucleated MG6 cells. The relative mRNA levels of IL-6, IL-1β, IL-10, and TGF-β were measured by a real-time PCR (qPCR). Measured mRNA transcript levels are reported as the mean level±standard deviation (n=3; *: p-value<0.05; **: p-value <0.01; ***: p-value <0.005; ****: p-value <0.001; and *****: p-value <0.0005). […]
# MG6 cells [2] = test: Phagocytosis of pHrodo Red E. coli BioParticles by sorted mono-/multinuclear MG6 cells (fluorescence plate reader); assay type: cell-based, mouse
# Method: FIGS. 7A-7D. Pyk2 inhibition promotes the phagocytotic activity and inflammatory responses in microglia. FIG. 7A: Quantification of the effect of Pyk2 inhibitor treatment on proliferation of mononucleated and multinucleated MG6 cells. MG6 cells were pretreated with 1000 nM Pyk2 inhibitor for 24 hours and mono-/multi-nuclear cells were isolated and collected by fluorescent activated cell sorting. […] There is no difference in proliferation of mononuclear cells after Pyk2 inhibitor treatment compared to untreated control cells. FIG. 7B: Fluorescent imaging depicting the effect of Pyk2 inhibitor on phagocytosis of mononucleated and multinucleated MG6 cells. MG6 cells were pretreated with 1000 nM Pyk2 inhibitor for 24 hours and mono-/multi-nuclear cells were isolated and collected by fluorescent activated cell sorting. After sorting, cells were treated with pHrodo Red E. coli BioParticles. Representative images are shown at ×20 magnification level. FIG. 7C: Quantification of phagocytosis of mononucleated and multinucleated MG6 cells over time. After Pyk2 inhibitor treatment and cell sorting, MG6 cells were treated with pHrodo Red E. coli BioParticles for the indicated time. Fluorescence intensity was measured by fluorescence microplate reader at excitation/emission wavelengths of 560/580 nm. […] FIG. 7D: Quantification of the effect of Pyk2 inhibitor treatment on cytokine/chemokine levels of mononucleated and multinucleated MG6 cells. The relative mRNA levels of IL-6, IL-1β, IL-10, and TGF-β were measured by a real-time PCR (qPCR). Measured mRNA transcript levels are reported as the mean level±standard deviation (n=3; *: p-value<0.05; **: p-value <0.01; ***: p-value <0.005; ****: p-value <0.001; and *****: p-value <0.0005).
# Next, the differences in the activity of mononucleated and multinucleated microglial cells in response to Pyk2 inhibition was further assessed. […] Mononucleated and multinucleated MG6 cells also differed regarding the cytokines and chemokines produced by each (FIG. 7D).
# MG6 cells [3] = test: Phagocytosis of Hilite-555 labelled Aβ42 by MG6 cells; assay type: cell-based, mouse; conditions: 24 h inhibitor, Hilite-555 labelled Aβ42 500 ng/mL; listed as Pyk2 inhibitor
# Method: FIGS. 5A-5D. Characteristics of Pyk2 inhibition on phagocytotic activity in microglia. FIG. 5A: Immunofluorescent imaging depicting phagocytosis of pHrodo Red E. coli BioParticles by MG6 cells after exposure to Pyk2 inhibitors. MG6 cells were either untreated (left) or treated with 1000 nM Pyk2 inhibitor treatment for 24 hours (right). Immunofluorescent images were obtained via confocal microscopy (×600). MG6 cells were fixed and stained with phalloidin-AlexaFluor488 to visualize actin, and with DAPI to visualize nuclei (encircled). Scale bar is 20 μm. […] FIG. 5B: Immunofluorescent imaging depicting phagocytosis of pHrodo Red E. coli BioParticles by mononucleated and multinucleated MG6 cells after exposure to Pyk2 inhibitors. MG6 cells were treated and imaged as in FIG. 5A. After obtaining three-dimensional images, BioParticles are quantified by a spot analysis using IMARIS software (bottom figures). FIG. 5C: Quantification of spot analysis in FIG. 5B. The output of IMARIS spot analysis was analyzed using one-way ANOVA. […] FIG. 5D: Phagocytotic activity for Aβ in MG6 cells. Immunostaining for Iba1 and Aβ in control and Pyk2 inhibitor treated group. MG6 cells were treated with Pyk2 inhibitor or vehicle for 24 hours and then Hilite-555 labelled Aβ42 was added for 24 hours. Data are representative images of four wells from three independent experiments. […]
# [4] = 4 and 5 hours after pHrodo treatment
smiles,measurement,setting,value
CN(c1ccccc1CNc1nc(Nc2ccc3c(c2)CC(=O)N3)ncc1C(F)(F)F)S(C)(=O)=O [PF-431396],"expression of MHC class II molecules (e.g., H2-D1 and H2-K1) in microglia",microglia,increased expression
same,phagocytic activity near amyloid plaques,microglia,enhanced
same,proportion of activated microglia,microglia; listed as Pyk2 inhibitor,a significant proportion of microglia were activated; also recorded: significantly larger proportion
same,Lamp1 (lysosomal activity),Lamp1,increased
same,Lamp1 (lysosomal activity),Lamp1; listed as Pyk2 inhibitor,increase
same,proliferation of sorted mononucleated MG6 cells vs untreated,MG6 cells [1],no difference
same,proliferation of sorted multinucleated MG6 cells,MG6 cells [1]; listed as Pyk2 inhibitor,slightly increased; also recorded: increased level
same,"phagocytosis of pHrodo BioParticles, sorted mononucleated cells vs control",MG6 cells [2]; 1000 nM pretreatment,did not
same,"phagocytosis of pHrodo BioParticles, sorted multinucleated cells vs control",MG6 cells [2]; 1000 nM pretreatment,increase in phagocytosis
same,"phagocytic activity, Pyk2-mono vs control",MG6 cells [2]; [4],do not show significant difference
same,"phagocytic activity, Pyk2-multi vs Pyk2-mono and controls",MG6 cells [2]; [4],higher phagocytic activity
same,"phagocytic activity, sorted mononuclear cells (Pyk2-mono)",MG6 cells [2]; 3 hours after pHrodo treatment,increased fluorescence signal
same,"phagocytic activity, sorted multinuclear cells (Pyk2-multi)","MG6 cells [2]; 3 hours after pHrodo treatment, listed as Pyk2 inhibitor",statistically significant increase; also recorded: increased fluorescence signal
same,phagocytosis of Aβ42,MG6 cells [3],increased phagocytosis; also recorded: significantly higher

# From US20250186439A1, “PYK2 INHIBITION MODULATES IMMUNE CELL FUNCTION” (The Children's Medical Center Corporation, priority 2022, published 2025)
